Assay results published in patent publication US20260199500A1, “Camptothecin Derivative, Conjugate Thereof, Preparation Method Therefor and Medical Use Thereof” (priority 2023, published 2026).
Like-named read-outs stand apart in the source and are kept apart here.

Experiments:
[1] = US 20210169852 A; cited from earlier work
Colo-205 (Colon) cells = assay: Inhibition of Colo-205 cells by compounds; type: cell-based; details: PY-X (DXD) set to 1
Procedure: (§1) On the day of the experiment, the cells were digested with 0.25% trypsin (Gibco, 25200-072), filtered through a 40 μm sieve, diluted with the corresponding medium to a cell density of 1×10^4 cells/mL, and inoculated into a 96-well white cell culture plate (Beyotime, FCP968), with 100 μL of cells added per well. The culture plate was placed in a 37° C. incubator (Thermo 311) containing 5% C02 and incubated for 24 hours. On the second day, the samples to be tested were prepared as a stock solution at a final concentration of 1M in DMSO (Sigma, D1650), then diluted with the corresponding medium to a final concentration of 200 nM, and subjected to four-fold serial dilutions, resulting in a total of 9 concentrations. 100 μL of the diluted sample was added to each well of the 96-well plate. The plate was placed in a 37° C. incubator containing 5% CO2 and incubated for 144 hours. The cell culture plate was then removed, and 100 μL of the cell viability assay reagent (CellTiter-Glo® Luminescent Cell Viability Assay, Promega, G7571) was added to each well. The reaction was carried out in the dark at room temperature for 5 minutes. Luminescence values were read using a microplate reader (TECAN SPARK), and data were processed using Graphpad Prism 7 software.

N87 gastric cancer cells = assay: Inhibitory activity of compounds on N87 gastric cancer cells (CellTiter-Glo, 144 h); type: cell-based; details: for IC50 on N87 cells, ratio to DXD (retest): samples retested together, ratio of measured IC50 to DXD; for IC50 on N87 cells, ratio to DXD: IC50 of PY-X (DXD) set to 1, values are ratios of measured IC50 to DXD, 144 h
Procedure: as §1
(§2) PY—Y is referenced in the document (WO2022170971A1); and PY-A is referenced in the document (WO2021148501A1).

[2] = Log D of small molecules (1-octanol / phosphate buffer pH 2.5 and pH 7.4, LC-MS/MS); type: physicochemical
Procedure: (1) Preparation of 100 mM phosphate buffer (PB) solution at pH 2.5 and pH 7.4 respectively: • a. Preparation of a solution of 100 mM H3PO4 in water: 14.7 M H3PO4 was diluted with water to a concentration of 100 mM H3PO4, and the pH was measured to be approximately 1.8. • b. Preparation of 100 mM NaH2PO4: 5.999 g of NaH2PO4 was dissolved in 500 mL of water and the pH was measured to be approximately 4.5. • c. Preparation of 100 mM Na2HPO4: 7.098 g of Na2HPO4 was dissolved in water to a volume of 500 mL and the pH was measured to be approximately 9.4. • d. Preparation of 100 mM PB (pH 2.5): 15 mL of 100 mM H3PO4 was added to a 50 mL tube, and then pH was adjusted to 2.5±0.05 with 100 mM NaH2PO4. • d. Preparation of 100 mM PB (pH 7.4): 15 mL of 100 mM Na2HPO4 was added to a 50 mL tube, and then pH was adjusted to 7.4±0.05 with 100 mM NaH2PO4.
(2) Saturation of PBs (pH 2.5 and pH 7.4) with 1-octanol: 10 mL of 1-octanol was added to 100 mL of 100 mM PBs (pH 2.5 and pH 7.4), and the mixture was shaken vigorously, and then allowed to stand overnight at room temperature for later use.
(3) Saturation of 1-octanol with PBs (pH 2.5 and pH 7.4): 10 mL of 100 mM PBs (pH 2.5 and pH 7.4) was added to 100 mL of 1-octanol, and the mixture was shaken vigorously, and then allowed to stand overnight at room temperature for later use.
2.1) 2 μL of 10 mM DMSO stock solution of the test compound were dispensed into test tubes, in duplicate.
2.2) 149 μL of PB saturated with 1-octanol (pH 2.5 and 7.4) were added to the tubes.
2.3) 149 μL of PB (pH 2.5 and 7.4) saturated with 1-octanol were added to the corresponding tubes.
2.4) Each tube was vigorously mixed for 2 minutes, then shaken at 800 rpm for 1 hour at room temperature.
2.5) The tubes were centrifuged at 4000 rpm for 5 minutes at room temperature.
2.6) Appropriate volumes of the buffer phase and 1-octanol phase samples were aliquoted.
2.7) These samples were diluted and analyzed using LC-MS/MS without running a calibration curve.
2.8) Data analysis: The log D value of each compound was calculated using the following formula: f

H1650 (NSCLC) cells = assay: Inhibition of H1650 cells by compounds; type: cell-based; details: PY-X (DXD) set to 1
Procedure: as §1

SW1573 (NSCLC) cells = assay: Inhibition of SW1573 cells by compounds; type: cell-based; details: PY-X (DXD) set to 1
Procedure: as §1

[3] = system: PANC-1 (Pancreatic) cells; assay: Inhibition of PANC-1 cells by compounds; type: cell-based; details: PY-X (DXD) set to 1
Procedure: as §1

A549 (NSCLC) cells = assay: Inhibition of A549 cells by compounds; type: cell-based; details: PY-X (DXD) set to 1
Procedure: as §1

H82 (SCLC) cells = assay: Inhibition of H82 cells by compounds; type: cell-based; details: PY-X (DXD) set to 1
Procedure: as §1

H1437 (NSCLC) cells = assay: Inhibition of H1437 cells by compounds; type: cell-based; details: PY-X (DXD) set to 1
Procedure: as §1

[4] = system: MDA-MB-468 breast cancer cells; assay: Inhibitory activity of compounds on MDA-MB-468 breast cancer cells (CellTiter-Glo); type: cell-based; details: for IC50 on 468 cells, ratio to DXD (retest): samples retested together, ratio of measured IC50 to DXD; for IC50 on 468 cells, ratio to DXD: IC50 of PY-X (DXD) set to 1, values are ratios of measured IC50 to DXD
Procedure: as §1, §2

[5] = system: SW1990 (Pancreatic) cells; assay: Inhibition of SW1990 cells by compounds; type: cell-based; details: PY-X (DXD) set to 1
Procedure: as §1

HT-29 (Colon) cells = assay: Inhibition of HT-29 cells by compounds; type: cell-based; details: PY-X (DXD) set to 1
Procedure: as §1

DMS53 (SCLC) cells = assay: Inhibition of DMS53 cells by compounds; type: cell-based; details: PY-X (DXD) set to 1
Procedure: as §1

H23 (NSCLC) cells = assay: Inhibition of H23 cells by compounds; type: cell-based; details: PY-X (DXD) set to 1
Procedure: as §1

H1975 (NSCLC) cells = assay: Inhibition of H1975 cells by compounds; type: cell-based; details: PY-X (DXD) set to 1
Procedure: as §1

OVCAR3 (Ovarian) cells = assay: Inhibition of OVCAR3 cells by compounds; type: cell-based; details: PY-X (DXD) set to 1
Procedure: as §1

H358 (NSCLC) cells = assay: Inhibition of H358 cells by compounds; type: cell-based; details: PY-X (DXD) set to 1
Procedure: as §1

PA-1 (Ovarian) cells = assay: Inhibition of PA-1 cells by compounds; type: cell-based; details: PY-X (DXD) set to 1
Procedure: as §1

FADU (HNSCC) cells = assay: Inhibition of FADU cells by compounds; type: cell-based; details: PY-X (DXD) set to 1
Procedure: as §1

| Molecule | IC50 in Colo-205 cells, ratio to DXD (Colo-205 (Colon) cells) | IC50 in H1650 cells, ratio to DXD (H1650 (NSCLC) cells) | IC50 in SW1573 cells, ratio to DXD (SW1573 (NSCLC) cells) | IC50 in PANC-1 cells, ratio to DXD [3] | IC50 in A549 cells, ratio to DXD (A549 (NSCLC) cells) | IC50 in H82 cells, ratio to DXD (H82 (SCLC) cells) | IC50 in H1437 cells, ratio to DXD (H1437 (NSCLC) cells) | IC50 in SW1990 cells, ratio to DXD [5] | IC50 in HT-29 cells, ratio to DXD (HT-29 (Colon) cells) | IC50 in DMS53 cells, ratio to DXD (DMS53 (SCLC) cells) | also measured |
| --- | --- | --- | --- | --- | --- | --- | --- | --- | --- | --- | --- |
| CC[C@@]1(O)C(=O)OCc2c1cc1n(c2=O)Cc2c-1nc1cc(F)c(C)c3c1c2[C@@H](NC(=O)CO)CC3 [DXd] | – | – | – | – | – | – | – | – | – | – | times less active than exatecan [1]: 2-4 |
| CC[C@@]1(O)C(=O)OCc2c1cc1n(c2=O)Cc2c-1nc1cc(F)c(C)c3c1c2[C@@H](NC(=O)OCCCCO)CC3 [PY-4Car2, 4-hydroxybutyl((1S,9S)-9-ethyl-5-fluoro-9-hydroxy-4-methyl-10,13-dioxo-2,3,9,10,13,15-hexahydro-1H,12H-benzo[de]pyrano[3′,4′:6,7]indolizino[1,2-b]quinolin-1-yl)carbamate] | 0.4478 | 0.7384 | 0.4766 | 0.4865 | 0.5433 | 0.5803 | 0.9590 | 0.3573 | 0.4854 | – | IC50 on N87 cells, ratio to DXD (retest) (N87 gastric cancer cells): 0.5046; logD ([2]; 1-octanol / phosphate buffer pH 2.5, read-out: Log D2.5 (Oct/buff) Result): 2.44; logD ([2]; 1-octanol / phosphate buffer pH 7.4, read-out: Log D7.4 (Oct/buff) Result): 2.43; solubility in n-octanol compared with PY-4Car, PY-4Car3C and DXD ([2]; different pH values (2.5 and 7.4)): belier solubility in n-octanol; IC50 on 468 cells, ratio to DXD (retest) [4]: 0.8170 |
| CC[C@@]1(O)C(=O)OCc2c1cc1n(c2=O)Cc2c-1nc1cc(F)c(C)c3c1c2[C@@H](NC(=O)OCCO)CC3 [PY-4Car, 2-hydroxyethyl((1S,9S)-9-ethyl-5-fluoro-9-hydroxy-4-methyl-10,13-dioxy-2,3,9,10,13,15-hexahydro-1H,12H-benzo[de]pyran[3′,4:6,7]indolizino[1,2-b]quinolin-1-yl)carbamate] | 0.2923 | 0.4491 | 0.3187 | 0.4763 | 0.4832 | 0.4523 | 0.6526 | 0.4822 | 0.3312 | 0.5151 | IC50 on N87 cells, ratio to DXD (retest) (N87 gastric cancer cells): 0.3112; logD ([2]; pH 2.5): 2.1; logD ([2]; pH 7.4): 2.09; IC50 on 468 cells, ratio to DXD (retest) [4]: 0.5193 |
| CC[C@@]1(O)C(=O)OCc2c1cc1n(c2=O)Cc2c-1nc1cc(F)c(CO)c3c1c2CCC3 [PY-10, (S)-9-ethyl-5-fluoro-9-hydroxy-4-(hydroxymethyl)-1,2,3,9,12,15-hexahydro-10H,13H-benzo[de]pyrano[3′,4′:6,7]indolizino[1,2-b]quinolin-10,13-dione] | 0.1546 | 0.0456 | 0.1540 | 0.0915 | 0.0792 | 0.1525 | 0.1209 | 0.2133 | 0.0874 | 0.1968 | – |
| CC[C@@]1(O)C(=O)OCc2c1cc1n(c2=O)Cc2c-1nc1cc(F)c(O)c3c1c2CCC3 [PY-13, (S)-9-ethyl-5-fluoro-4,9-dihydroxy-1,2,3,9,12,15-hexahydro-10H,13H-benzo[de]pyrano[3′,4:6,7]indolizino[1,2-b]quinolin-10,13-dione] | 0.1643 | 0.0415 | 0.1570 | 0.0810 | 0.0899 | 0.1364 | 0.0969 | 0.1255 | 0.1434 | 0.1624 | IC50 in H23 cells, ratio to DXD (H23 (NSCLC) cells): 0.0819; IC50 on N87 cells, ratio to DXD (N87 gastric cancer cells): 0.0852; IC50 on 468 cells, ratio to DXD [4]: 0.0798; IC50 in H1975 cells, ratio to DXD (H1975 (NSCLC) cells): 0.0426; IC50 in OVCAR3 cells, ratio to DXD (OVCAR3 (Ovarian) cells): 0.0560; IC50 in H358 cells, ratio to DXD (H358 (NSCLC) cells): 0.1062; IC50 in PA-1 cells, ratio to DXD (PA-1 (Ovarian) cells): 0.1600; IC50 in FADU cells, ratio to DXD (FADU (HNSCC) cells): 0.1648 |
| CC[C@@]1(O)C(=O)OCc2c1cc1n(c2=O)Cc2c-1nc1cc(F)c(CN)c3c1c2CCC3 [PY-16, (S)-4-(aminomethyl)-9-ethyl-5-fluoro-9-hydroxy-1,2,3,9,12,15-hexahydro-10H,13H-benzo[de]pyrano[3′,4′:6,7]indolizino[1,2-b]quinolin-10,13-dione] | 0.3082 | 0.1421 | 0.2256 | 0.1325 | 0.2053 | 0.3391 | 0.2768 | 0.4346 | 0.1933 | 0.5137 | – |
| exatecan mesylate [PY-E, reference compound] | 0.2938 | 0.1570 | 0.3310 | 0.1086 | 0.1645 | 0.5103 | 0.2303 | 0.3581 | 0.1376 | – | IC50 in H23 cells, ratio to DXD (H23 (NSCLC) cells): 0.1245; IC50 on N87 cells, ratio to DXD (N87 gastric cancer cells): 0.4782; IC50 on 468 cells, ratio to DXD [4]: 0.3546; IC50 in H1975 cells, ratio to DXD (H1975 (NSCLC) cells): 0.0963; IC50 in OVCAR3 cells, ratio to DXD (OVCAR3 (Ovarian) cells): 0.2269; IC50 in H358 cells, ratio to DXD (H358 (NSCLC) cells): 0.2694; IC50 in PA-1 cells, ratio to DXD (PA-1 (Ovarian) cells): 0.3572; IC50 in FADU cells, ratio to DXD (FADU (HNSCC) cells): 0.4464 |
